Data reported in PubChem BioAssay (NCI).
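A five-concentration, 48-hour dose response in 96-well plates underlies each endpoint, interpolated linearly between surrounding concentrations. TGI marks complete inhibition of growth.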

Experiments:
Assay in all cases: growth of human tumour cells (NCI), 48 h
HCC-2998 colon = test system: HCC-2998 colon
MALME-3M melanoma = test system: MALME-3M melanoma
SNB-75 CNS = test system: SNB-75 CNS
CCRF-CEM leukemia = test system: CCRF-CEM leukemia
EKVX NSCLC = test system: EKVX NSCLC
ACHN renal = test system: ACHN renal
HOP-62 NSCLC = test system: HOP-62 NSCLC
SK-MEL-2 melanoma = test system: SK-MEL-2 melanoma
RPMI-8226 leukemia = test system: RPMI-8226 leukemia
UACC-257 melanoma = test system: UACC-257 melanoma
786-0 renal = test system: 786-0 renal
SF-268 CNS = test system: SF-268 CNS
SNB-19 CNS = test system: SNB-19 CNS
TK-10 renal = test system: TK-10 renal
DMS 273 small cell lung = test system: DMS 273 small cell lung
CAKI-1 renal = test system: CAKI-1 renal
KM12 colon = test system: KM12 colon
MOLT-4 leukemia = test system: MOLT-4 leukemia
DMS 114 small cell lung = test system: DMS 114 small cell lung
M19-MEL melanoma = test system: M19-MEL melanoma
SF-539 CNS = test system: SF-539 CNS
NCI-H23 lung = test system: NCI-H23 lung
XF 498 CNS = test system: XF 498 CNS
HOP-92 NSCLC = test system: HOP-92 NSCLC
HL-60(TB) leukemia = test system: HL-60(TB) leukemia
SK-MEL-28 melanoma = test system: SK-MEL-28 melanoma
HOP-18 NSCLC = test system: HOP-18 NSCLC
M14 melanoma = test system: M14 melanoma
LOX IMVI melanoma = test system: LOX IMVI melanoma
SR leukemia = test system: SR leukemia
LXFL 529 NSCLC = test system: LXFL 529 NSCLC
NCI-H460 lung = test system: NCI-H460 lung
HCT-15 colon = test system: HCT-15 colon
HCT-116 colon = test system: HCT-116 colon
SK-MEL-5 melanoma = test system: SK-MEL-5 melanoma
A498 renal = test system: A498 renal
K-562 leukemia = test system: K-562 leukemia
DLD-1 colon = test system: DLD-1 colon
OVCAR-8 ovarian = test system: OVCAR-8 ovarian
OVCAR-5 ovarian = test system: OVCAR-5 ovarian
IGROV1 ovarian = test system: IGROV1 ovarian
OVCAR-3 ovarian = test system: OVCAR-3 ovarian
SF-295 CNS = test system: SF-295 CNS
RXF 393 renal = test system: RXF 393 renal
A549 NSCLC = test system: A549 NSCLC
HT29 colon = test system: HT29 colon
NCI-H226 lung = test system: NCI-H226 lung
UACC-62 melanoma = test system: UACC-62 melanoma
KM20L2 colon = test system: KM20L2 colon
UO-31 renal = test system: UO-31 renal
SW-620 colon = test system: SW-620 colon
SNB-78 CNS = test system: SNB-78 CNS
SN12C renal = test system: SN12C renal
OVCAR-4 ovarian = test system: OVCAR-4 ovarian

Measured: TGI

C/C(CCn1[nH]c(=O)ccc1=O)=N\N=C(N)N
> 100 µM: all assays above
